From patent US20130252951A1, “7-HYDROXY-PYRAZOLO[1,5-A] PYRIMIDINE COMPOUNDS AND THEIR USE AS CCR2 RECEPTOR ANTAGONISTS” (Proximagen Limited, priority 2010, published 2013) come the findings set out here.

The target of one assay is T1, human CCR2 (Homo sapiens, UniProt P41597). Description: CCR2 functional calcium assay (FLIPR calcium flux, hMCP-1 challenge). Type of assay: cell-based. Also on record: expressed in transfected cells; host or cells: HEK293 EBNA cells. The settings on record: HEK293 EBNA cells transfected with human CCR2, hMCP-1 challenge; read-out: Functional CCR2 fKi. The method, boiled down: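 FLIPR Fluo-4 calcium flux in HEK293 EBNA cells transfected with human CCR2, with non-transfected cells as control. Compounds (10-point 1:3 curves, typically 30 μM to 0.5 nM) were added in HBSS/20 mM HEPES/0.1% BSA, pH 7.4, followed by MCP-1 challenge. Peak minus basal signal was expressed as % of EC50 MCP-1 response.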
T1 sequence (P41597 whole entry): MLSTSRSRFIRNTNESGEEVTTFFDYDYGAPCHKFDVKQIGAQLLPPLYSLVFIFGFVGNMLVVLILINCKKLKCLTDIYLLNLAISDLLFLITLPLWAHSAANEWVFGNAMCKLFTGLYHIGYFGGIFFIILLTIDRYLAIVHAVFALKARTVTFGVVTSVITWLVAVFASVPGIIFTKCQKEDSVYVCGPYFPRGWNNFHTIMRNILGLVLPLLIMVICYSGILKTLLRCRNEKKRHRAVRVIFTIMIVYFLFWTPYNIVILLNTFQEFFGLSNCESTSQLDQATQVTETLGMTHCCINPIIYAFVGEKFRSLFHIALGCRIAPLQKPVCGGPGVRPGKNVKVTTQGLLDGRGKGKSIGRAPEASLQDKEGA
In general terms: Calcium assays in cells follow changes in intracellular calcium, usually with a dye or a luminescent sensor.
Take `Cc1nc2ccnn2c(O)c1Cc1ccc(Cl)cc1` [Example 1, 6-[(4-Chlorophenyl)methyl]-5-methylpyrazolo[1,5-a]pyrimidin-7-ol]: the Ki was in the range of 10 to 100 nM.

As to `CCCc1nc2ccnn2c(O)c1Cc1ccc(C(F)(F)F)c(F)c1` [Example 16, 6-{[3-Fluoro-4-(trifluoromethyl)phenyl]-methyl}-5-propylpyrazolo[1,5-a]-pyrimidin-7-ol], the Ki was below 10 nM.

On to `Oc1c(Cc2cccc(Cl)c2)c(C2CC2)nc2ccnn12` [Example 21, 6-[(3-Chlorophenyl)methyl]-5-cyclo-propylpyrazolo[1,5-a]pyrimidin-7-ol], for which the Ki was below 10 nM.

For `CC(=O)c1nc2ccnn2c(O)c1Cc1cccc(F)c1` [Example 94, 1-{6-[(3-Fluorophenyl)methyl]-7-hydroxypyrazolo[1,5-a]pyrimidin-5-yl}ethan-1-one], the Ki fell in the range of 10 to 100 nM.

Regarding `CC(O)c1nc2ccnn2c(O)c1Cc1cccc(F)c1` (stereo not shown) [Example 95, 6-[(3-Fluorophenyl)methyl]-5-(1-hydroxyethyl)pyrazolo[1,5-a]pyrimidin-7-ol], the Ki lay within 100 to 1000 nM.

In the case of `CC(=O)c1nc2ccnn2c(O)c1Cc1ccc(Cl)c(Cl)c1` [Example 96, 1-{6-[(3,4-Dichlorophenyl)methyl]-7-hydroxypyrazolo[1,5-a]pyrimidin-5-yl}ethan-1-one], the Ki was in the range of 10 to 100 nM.

Consider `CCC(=O)c1nc2ccnn2c(O)c1Cc1ccc(Cl)c(Cl)c1` [Example 97, 1-{6-[(3,4-Dichlorophenyl)methyl]-7-hydroxypyrazolo[1,5-a]pyrimidin-5-yl}propan-1-one], for which the Ki is 10 to 100 nM.

As for `Cc1noc(Cc2nc3ccnn3c(O)c2Cc2ccc(Cl)cc2)n1` [Example 98, 6-[(4-Chlorophenyl)methyl]-5-[(3-methyl-1,2,4-oxadiazol-5-yl)methyl]pyrazolo[1,5-a]-pyrimidin-7-ol], the Ki lay in the range of 100 to 1000 nM.

Consider `CNC(=O)c1cnn2c(O)c(Cc3ccc(Cl)cc3)c(C)nc12` [Example 99, 6-[(4-Chlorophenyl)methyl]-7-hydroxy-N,5-dimethylpyrazolo[1,5-a]pyrimidine-3-carboxamide], for which the Ki lay within 100 to 1000 nM.

Take `Cc1nc2c(C(=O)N(C)C)cnn2c(O)c1Cc1ccc(Cl)cc1` [Example 100, 6-[(4-Chlorophenyl)methyl]-7-hydroxy-N,N,5-trimethylpyrazolo[1,5-a]pyrimidine-3-carboxamide]: the Ki fell in the range of 100 to 1000 nM.

Regarding `Cc1nc2c(C(=O)NC[C@H]3CCCO3)cnn2c(O)c1Cc1ccc(Cl)cc1` [Example 101, 6-[(4-Chlorophenyl)methyl]-7-hydroxy-5-methyl-N-[(2R)-oxolan-2-ylmethyl]-pyrazolo[1,5-a]pyrimidine-3-carboxamide], the Ki lay within 100 to 1000 nM.

For the compound `COCCNC(=O)c1cnn2c(O)c(Cc3ccc(C)cc3)c(C)nc12` [Example 102, 7-Hydroxy-N-(2-methoxyethyl)-5-methyl-6-[(4-methylphenyl)methyl]pyrazolo[1,5-a]pyrimidine-3-carboxamide], the Ki is 100 to 1000 nM.

`Cc1nc2c(C(=O)NCCOc3ccccc3)cnn2c(O)c1Cc1ccccc1` [Example 103, 6-Benzyl-7-hydroxy-5-methyl-N-(2-phenoxyethyl)pyrazolo[1,5-a]pyrimidine-3-carboxamide]: the Ki is 100 to 1000 nM.

`Cc1nc2c(C(=O)N3CCN(C)CC3)cnn2c(O)c1Cc1ccc(Cl)cc1` [Example 104, 6-[(4-Chlorophenyl)methyl]-5-methyl-3-[(4-methylpiperazin-1-yl)carbonyl]pyrazolo [1,5-a]pyrimidin-7-ol]: the Ki was in the range of 100 to 1000 nM.

Turning to `Cc1nc2c(C(=O)NCCc3ccccc3)cnn2c(O)c1Cc1ccc(Cl)cc1` [Example 105, 6-[(4-Chlorophenyl)methyl]-7-hydroxy-5-methyl-N-(2-phenylethyl)pyrazolo[1,5-a]pyrimidine-3-carboxamide], the Ki was 100 to 1000 nM.

Regarding `C=CCNC(=O)c1cnn2c(O)c(Cc3ccc(Cl)cc3)c(C)nc12` [Example 106, 6-[(4-Chlorophenyl)methyl]-7-hydroxy-5-methyl-N-(prop-2-en-1-yl)pyrazolo[1,5-a]-pyrimidine-3-carboxamide], the Ki lay within 100 to 1000 nM.

For `COCCNC(=O)c1cnn2c(O)c(Cc3ccc(Cl)cc3)c(C)nc12` [Example 107, 6-[(4-Chlorophenyl)methyl]-7-hydroxy-N-(2-methoxyethyl)-5-methylpyrazolo[1,5-a]-pyrimidine-3-carboxamide], the Ki lay within 10 to 100 nM.

As to `CSCCNC(=O)c1cnn2c(O)c(Cc3ccc(Cl)cc3)c(C)nc12` [Example 108, 6-[(4-Chlorophenyl)methyl]-7-hydroxy-5-methyl-N-[2-(methylsulfanyl)ethyl] pyrazolo[1,5-a]pyrimidine-3-carboxamide], the Ki was in the range of 100 to 1000 nM.

Take `Cc1nc2c(C(=O)N(C)CCC#N)cnn2c(O)c1Cc1ccc(Cl)cc1` [Example 109, 6-[(4-Chlorophenyl)methyl]-N-(2-cyanoethyl)-7-hydroxy-N,5-dimethylpyrazolo[1,5-a] pyrimidine-3-carboxamide]: the Ki fell in the range of 100 to 1000 nM.

In the case of `Cc1ccc(Cc2c(C)nc3c(C(=O)NCCc4ccccn4)cnn3c2O)cc1` [Example 111, 7-Hydroxy-5-methyl-6-[(4-methylphenyl)-methyl]-N-[2-(pyridin-2-yl)ethyl]pyrazolo-[1,5-a]pyrimidine-3-carboxamide], the Ki lay in the range of 100 to 1000 nM.

In the case of `COCCCNC(=O)c1cnn2c(O)c(Cc3ccccc3)c(C)nc12` [Example 112, 6-Benzyl-7-hydroxy-N-(3-methoxypropyl)-5-methylpyrazolo[1,5-a] pyrimidine-3-carboxamide], the Ki fell in the range of 100 to 1000 nM.

`COCCNC(=O)c1cnn2c(O)c(Cc3ccc(C(F)(F)F)cc3)c(C)nc12` [Example 113, 7-Hydroxy-N-(2-methoxyethyl)-5-methyl-6-{[4-(trifluoromethyl)phenyl]methyl}pyrazolo [1,5-a]pyrimidine-3-carboxamide]: the Ki was in the range of 100 to 1000 nM.

As to `Cc1nc2c(C(=O)N3CCOCC3)cnn2c(O)c1Cc1ccc(C(F)(F)F)cc1` [Example 114], the Ki lay within 100 to 1000 nM.

`COCCNC(=O)c1cnn2c(O)c(Cc3ccc(Cl)c(Cl)c3)c(C)nc12` [Example 115, 6-[(3,4-Dichlorophenyl)methyl]-7-hydroxy-N-(2-methoxyethyl)-5-methylpyrazolo-[1,5-a] pyrimidine-3-carboxamide]: the Ki is 10 to 100 nM.

Regarding `COCCNC(=O)c1cnn2c(O)c(Cc3cccc(Cl)c3)c(C)nc12` [Example 116, 6-[(3-Chlorophenyl)methyl]-7-hydroxy-N-(2-methoxyethyl)-5-methylpyrazolo[1,5-a]-pyrimidine-3-carboxamide], the Ki lay within 100 to 1000 nM.

In the case of `CCc1nc2c(C(=O)NCCOC)cnn2c(O)c1Cc1ccc(Cl)cc1` [Example 117, 6-[(4-Chlorophenyl)methyl]-5-ethyl-7-hydroxy-N-(2-methoxyethyl)pyrazolo-[1,5-a]pyrimidine-3-carboxamide], the Ki lay in the range of 10 to 100 nM.

As to `COCCNC(=O)c1cnn2c(O)c(Cc3ccc(Cl)cc3)c(COC)nc12` [Example 118, 6-[(4-Chlorophenyl)methyl]-7-hydroxy-N-(2-methoxy-ethyl)5-(methoxymethyl)-pyrazolo[1,5-a]pyrimidine-3-carboxamide], the Ki was in the range of 100 to 1000 nM.

The assay is the same for the next values; noted with them: agonist positive control.
A word on the EC50: it is the concentration that produces a half-maximal response. As for “MCP-1: human recombinant MCP-1, positive control (agonist) of the CCR2 functional assay”, the concentration giving a half-maximal response (EC50) was 3 to 5 nM and the “concentration giving maximal response” value amounted to 30 nM.

The assay is the same for the next values; noted with them: at 2 μM.
On to `O=C1Nc2ccccc2C2(CCN(CCc3ccc(C(F)(F)F)cc3)CC2)O1` [RS102895, reference compound], for which the “inhibition of CCR2 calcium response” value was “full inhibition”.

The same assay, now with this note: reference antagonist; read-out: fKi.
With `O=C1Nc2ccccc2C2(CCN(CCc3ccc(C(F)(F)F)cc3)CC2)O1` [RS102895, reference compound], the Ki was 84 nM.

For another assay, the target named is T1, human CCR2. In words: CCR2 binding assay ([125I]-MCP-1 displacement, SPA). Details: expressed in transfected cells; host or cells: HEK293 EBNA cells (membrane preparation). Conditions: human CCR2-HEK293 EBNA membranes. The procedure:
The binding of test compounds to the CCR2 receptor was evaluated using [^125I]-MCP-1.
Briefly, 25 μL assay buffer (25 mM HEPES, pH 7.4, 5 mM MgCl2, 1 mM CaCl2, 0.2% (w/v) protease free BSA, 100 μg/mL bacitracine and 0.1 M NaCl) was placed into total binding wells and 25 μL unlabelled ligand (0.4 μM MCP-1, for determination of non-specific binding) was placed into non-specific binding wells. [^125I]-MCP-1 (25 μL), human CCR2-HEK293 EBNA membrane preparation (25 μL) and SPA beads (25 μL) were added to all the wells. The wells were incubated for 4 h and counted for 1 min/well in a Perkin Elmer Topcount NXT.
The SPA beads (wheat germ agglutinin (WGA) PEI Type A PVT 0.25 mg/well) were prepared by reconstituting lyophilised bead to 100 mg/mL with de-ionised water and further diluting in assay buffer to give 10 mg/mL. The radioligand ([^125I]-MCP-1) was prepared by dilution in assay buffer to give 0.32 μCi/mL, ˜17600 dpm/25 μL (specific activity 2000 Ci/mMol). The final assay concentration was 0.04 nM. The human CCR2-HEK293 EBNA cells membranes were prepared as follows: cells were spun down at 1000×g for 3 min at room temperature, washed in PBS and spun down again. The cells were then homogenised with an Ultra Turrax at setting 6 in 5-10 mL ice cold buffer A (EDTA 10 mM, HEPES 10 mM, pH 7.4) for 10 sec. Following dilution with further ice cold buffer A and spinning at 20000×g for 20 min at 4° C., the mixture was re-homogenised in 5-10 mL ice cold buffer B (EDTA 0.1 mM, HEPES 10 mM, pH 7.4) and spun at 20000×g for 20 min at 4° C. The protein was assayed and re-suspended in buffer C (Buffer B+1 tablet/10 mL of Roche protease inhibitor cocktail) at 3 mg/mL. Before use, the membranes were thawed and diluted with assay buffer to give 80 μg/mL (2 μg/well).
Specific binding was determined as the difference between total binding in the absence of antagonist and binding in the presence of excess antagonist (non-specific binding). Data was expressed as a percentage of specific binding and analysed by a 4-parameter logistic equation using GraphPad Prism 4 software (GraphPad, San Diego, Calif., USA) to yield IC50 values. Ki values were calculated from the IC50 values using the correction for radioligand concentration.
Regarding `Cc1nc2ccnn2c(O)c1Cc1ccc(Cl)cc1` [Example 1, 6-[(4-Chlorophenyl)methyl]-5-methylpyrazolo[1,5-a]pyrimidin-7-ol], the Ki lay in the range of 100 to 1000 nM.

Take `CCCc1nc2ccnn2c(O)c1Cc1ccc(C(F)(F)F)c(F)c1` [Example 16, 6-{[3-Fluoro-4-(trifluoromethyl)phenyl]-methyl}-5-propylpyrazolo[1,5-a]-pyrimidin-7-ol]: the Ki fell in the range of 100 to 1000 nM.

`Oc1c(Cc2cccc(Cl)c2)c(C2CC2)nc2ccnn12` [Example 21, 6-[(3-Chlorophenyl)methyl]-5-cyclo-propylpyrazolo[1,5-a]pyrimidin-7-ol] returned a Ki of 10 to 100 nM.
